Where two headings read alike, the source gives them in different places.

For one assay, the system named is UM-UC-9 engineered cells. The assay can be described thus: Cell proliferation / short-term viability assay, CellTiter-Glo 144 h. It is filed as cell-based, human. Conditions: read-out: CTGlo 144 h UMUC9.5, G150. Summed up:
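Viability read by CellTiter-Glo 2.0 luminescence at day 7 versus DMSO-vehicle wells and a T0 plate measured on day 0. Cells: UM-UC-9 engineered assay-ready stocks, 500 cells/well in high-glucose DMEM with 10% FBS, 37° C, 5% CO2.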

In a further assay the target is T1, His6-TEV-PPARγ-(234-505) (Homo sapiens, UniProt P37231).
T1 construct: The His6-TEV-PPARγ-(234-505) protein for assay was expressed and purified; TEV cleavage site (N); made in house
T1 sequence (P37231 234-505): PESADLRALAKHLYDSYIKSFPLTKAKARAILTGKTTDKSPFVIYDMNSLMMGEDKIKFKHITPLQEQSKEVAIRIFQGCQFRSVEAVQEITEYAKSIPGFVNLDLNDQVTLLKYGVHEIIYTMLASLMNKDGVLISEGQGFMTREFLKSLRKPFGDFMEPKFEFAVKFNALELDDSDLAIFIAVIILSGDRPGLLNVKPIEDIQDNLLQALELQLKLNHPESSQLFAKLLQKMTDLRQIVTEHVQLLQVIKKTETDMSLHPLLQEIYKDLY
The assay can be described thus: TR-FRET Assay to Measure Co-R Peptide Recruitment to PPARγ. It is filed as biochemical. The note with it: Co-R peptide (SMRT-ID2) recruitment; top final concentration 20 μM; read-out: TR-FRET i-Ag; AC50. Summed up: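 Corepressor recruitment is measured by adding terbium-labeled anti-His antibody and FITC SMRT-ID2 peptide, at 5 and 200 nM final, after a 20-minute room-temperature protein–compound incubation. After one further hour, signal is converted to percent response between DMSO and 500 nM T0070907 wells.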
On the technique in general: In TR-FRET formats the signal depends on donor and acceptor labels being close together.

With `Cc1cc(-c2cc(C(=O)N3CCC(C(=O)NCc4cccc(Cl)c4)CC3)n[nH]2)c(Cl)cn1` [Example 262, 1-[5-(5-chloro-2-methylpyridin-4-yl)-1H-pyrazole-3-carbonyl]-N-[(3-chlorophenyl)methyl]piperidine-4-carboxamide], the IC50 in the assay on UM-UC-9 engineered cells (Homo sapiens, UM-UC-9, 144 h) was 332 nM. Besides, on His6-TEV-PPARγ-(234-505), the AC50 is 29.2 nM.

For the molecule `COc1cc(-c2cc(C(=O)N3CCC(C(=O)NCc4ccc5c(c4)CC(=O)N5C)CC3)n[nH]2)c(Cl)cn1` [Example 235, 1-(5-(5-chloro-2-methoxypyridin-4-yl)-1H-pyrazole-3-carbonyl)-N-((1-methyl-2-oxoindolin-5-yl)methyl)piperidine-4-carboxamide], in the assay with UM-UC-9 engineered cells (Homo sapiens, UM-UC-9, 144 h), the IC50 turned out to be 2360 nM. Besides, the AC50 on His6-TEV-PPARγ-(234-505) turned out to be 404 nM.

`CO[C@]1(C(F)(F)F)CC[C@@H](NC(=O)[C@H]2CCN(C(=O)c3cc(-c4cc(C)ncc4F)[nH]n3)C3(CC3)C2)CC1` (single isomer, unassigned) [Example 293-C]: the IC50 in the assay on UM-UC-9 engineered cells (Homo sapiens, UM-UC-9, 144 h) is 1.6 nM. At His6-TEV-PPARγ-(234-505), the AC50 amounted to 2.8 nM.

Turning to `COc1cc(-c2cc(C(=O)N3CC[C@H](C(=O)NCc4nc(C)ncc4Cl)CC34CC4)n[nH]2)c(F)cn1` [Example 387, (S)—N-((5-chloro-2-methylpyrimidin-4-yl)methyl)-4-(5-(5-fluoro-2-methoxypyridin-4-yl)-1H-pyrazole-3-carbonyl)-4-azaspiro[2,5]octane-7-carboxamide], in the assay with UM-UC-9 engineered cells (Homo sapiens, UM-UC-9, 144 h), the IC50 stood at 22.5 nM. On His6-TEV-PPARγ-(234-505), the AC50 is 14.4 nM.

For `COc1cc(-c2cc(C(=O)N3CC[C@H](C(=O)NC(C)c4cc5n(n4)CCN(C)C5)CC34CC4)n[nH]2)c(F)cn1` (single isomer, unassigned) [Example 475-A], the IC50 in the assay with UM-UC-9 engineered cells came out at 2840 nM. At His6-TEV-PPARγ-(234-505), the AC50 came to 433 nM.

With `COc1cc(-c2cc(C(=O)N3CC[C@H](C(=O)NCc4ncc(OC(C)C)cc4Cl)CC34CC4)n[nH]2)c(F)cn1` [Example 491, (S)—N-((3-chloro-5-isopropoxypyridin-2-yl)methyl)-4-(5-(5-fluoro-2-methoxypyridin-4-yl)-1H-pyrazole-3-carbonyl)-4-azaspiro[2.5]octane-7-carboxamide], the IC50 with UM-UC-9 engineered cells (Homo sapiens, UM-UC-9, 144 h) worked out at 11 nM. In addition, the AC50 on His6-TEV-PPARγ-(234-505) came to 0.3 nM.

For the molecule `COc1cc(-c2cc(C(=O)N3CCC(C(=O)NCC4(O)CCCCC4)CC3)n[nH]2)c(Cl)cn1` [Example 134, 1-(5-(5-chloro-2-methoxypyridin-4-yl)-1H-pyrazole-3-carbonyl)-N-((1-hydroxycyclohexyl)methyl)piperidine-4-carboxamide], the IC50 with UM-UC-9 engineered cells (Homo sapiens, UM-UC-9, 144 h) stood at 1090 nM. Also, at His6-TEV-PPARγ-(234-505), the AC50 is 238 nM.

On to `COc1cc(-c2cc(C(=O)N3CCC(C(=O)NCC4(C)OCCCO4)CC3)n[nH]2)c(Cl)cn1` [Example 216, 1-(5-(5-chloro-2-methoxypyridin-4-yl)-1H-pyrazole-3-carbonyl)-N-((2-methyl-1,3-dioxan-2-yl)methyl)piperidine-, 1-carboxamide], for which the IC50 in the assay on UM-UC-9 engineered cells (Homo sapiens, UM-UC-9, 144 h) came out at 3100 nM. On His6-TEV-PPARγ-(234-505), the AC50 came out at 697 nM.

For the molecule `COc1cc(-c2cc(C(=O)N3CCC(F)(C(=O)NCc4cccc(Cl)c4)CC3)n[nH]2)c(Cl)cn1` [Example 174, 1-(5-(5-chloro-2-methoxypyridin-4-yl)-1H-pyrazole-3-carbonyl)-N-(3-chlorobenzyl)-4-fluoropiperidine-4-carboxamide], the IC50 in the assay with UM-UC-9 engineered cells (Homo sapiens, UM-UC-9, 144 h) is 407 nM. Besides, the AC50 on His6-TEV-PPARγ-(234-505) turned out to be 125 nM.

In the case of `COc1cc(-c2cc(C(=O)N3CCC(C(=O)NC4CCC(C)CC4)CC3)n[nH]2)c(Cl)cn1` (mixture of isomers) [Example 101, 1-(5-(5-chloro-2-methoxypyridin-4-yl)-1H-pyrazole-3-carbonyl)-N-((1s,4s)-4-methylcyclohexyl)piperidine-4-carboxamide and 1-(5-(5-chloro-2-methoxypyridin-4-yl)-1H-pyrazole-3-carbonyl)-N-((1r,4r)-4-methylcyclohexyl)piperidine-4-carboxamide], the IC50 in the assay on UM-UC-9 engineered cells worked out at 305 nM. For the same molecule, on His6-TEV-PPARγ-(234-505), the AC50 is 29.4 nM.

With `COc1cc(-c2cc(C(=O)N3CCC(C(=O)NCc4ccc5c(c4)ncn5C)CC3)n[nH]2)c(Cl)cn1` [Example 223, 1-(5-(5-chloro-2-methoxypyridin-4-yl)-1H-pyrazole-3-carbonyl)-N-((1-methyl-1H-benzo[d]imidazol-5-yl)methyl)piperidine-4-carboxamide], the IC50 with UM-UC-9 engineered cells (Homo sapiens, UM-UC-9, 144 h) was more than 10000 nM. Besides, the AC50 at His6-TEV-PPARγ-(234-505) came to 628 nM.

`COc1cc(-c2cc(C(=O)N3CCC(C(=O)Nc4cnn5c4CC(O)CC5)CC34CC4)n[nH]2)c(F)cn1` (mixture of isomers) [Example 514, (S)-4-(5-(5-fluoro-2-methoxypyridin-4-yl)-1H-pyrazole-3-carbonyl)-N—((S)-5-hydroxy-4,5,6,7-tetrahydropyrazolo[1,5-a]pyridin-3-yl)-4-azaspiro[2.5]octane-7-carboxamide and (S)-4-(5-(5-fluoro-2-methoxypyridin-4-yl)-1H-pyrazole-3-carbonyl)-N—((R)-5-hydroxy-4,5,6,7-tetrahydropyrazolo[1,5-a]pyridin-3-yl)-4-azaspiro[2.5]octane-7-carboxamide]: the IC50 in the assay with UM-UC-9 engineered cells was more than 10000 nM. For the same molecule, on His6-TEV-PPARγ-(234-505), the AC50 turned out to be 33.7 nM.

Regarding `COc1cc(-c2cc(C(=O)N3CCC(C(=O)NCc4cccc(F)c4F)CC3)n[nH]2)c(Cl)cn1` [Example 155, 1-(5-(5-chloro-2-methoxypyridin-4-yl)-1H-pyrazole-3-carbonyl)-N-(2,3-difluorobenzyl)piperidine-4-carboxamide], in the assay on UM-UC-9 engineered cells (Homo sapiens, UM-UC-9, 144 h), the IC50 was 122 nM. The AC50 at His6-TEV-PPARγ-(234-505) is 103 nM.

`COc1cc(-c2cc(C(=O)N3CCC(C(=O)NC4c5ccccc5OC4C)CC3)n[nH]2)c(Cl)cn1` (stereo not shown) [Example 265, 1-(5-(5-chloro-2-methoxypyridin-4-yl)-1H-pyrazole-3-carbonyl)-N-(2-methyl-2,3-dihydrobenzofuran-3-yl)piperidine-4-carboxamide]: in the assay on UM-UC-9 engineered cells (Homo sapiens, UM-UC-9, 144 h), the IC50 was determined as 458 nM. Further, the AC50 on His6-TEV-PPARγ-(234-505) was 87.7 nM.

On to `Cc1cc(-c2cc(C(=O)N3CC[C@H](C(=O)N[C@H]4CC[C@@](O)(C(F)(F)F)CC4)CC34CC4)n[nH]2)c(F)cn1` (single isomer, unassigned) [Example 287-A], for which, in the assay on UM-UC-9 engineered cells (Homo sapiens, UM-UC-9, 144 h), the IC50 worked out at 2.4 nM. Further, the AC50 at His6-TEV-PPARγ-(234-505) was determined as 2.3 nM.

With `COc1cc(-c2cc(C(=O)N3CCC(C(=O)NCc4ccc5c(c4)C(C)(C)CN5)CC3)n[nH]2)c(F)cn1` [Example 278, N-((3,3-dimethylindolin-5-yl)methyl)-1-(5-(5-fluoro-2-methoxypyridin-4-yl)-1H-pyrazole-3-carbonyl)piperidine-4-carboxamide], in the assay on UM-UC-9 engineered cells (Homo sapiens, UM-UC-9, 144 h), the IC50 came out at 478 nM. The AC50 at His6-TEV-PPARγ-(234-505) is 75.1 nM.

On to `Cc1cc(-c2cc(C(=O)N3CCC(C(=O)NC4CCC(O)(C(F)(F)F)CC4)CC34CC4)n[nH]2)ncn1` (single isomer, unassigned) [Example 339-B], for which the IC50 in the assay with UM-UC-9 engineered cells worked out at 19.5 nM. For the same molecule, the AC50 at His6-TEV-PPARγ-(234-505) amounted to 6.9 nM.

Turning to `COc1cc(-c2cc(C(=O)N3CCC(C(=O)NC4CCC(O)(C(F)(F)F)CC4)CC3C(F)(F)F)n[nH]2)c(F)cn1` (single isomer, unassigned) [Example 367-A], in the assay on UM-UC-9 engineered cells, the IC50 was 161 nM. For the same molecule, at His6-TEV-PPARγ-(234-505), the AC50 worked out at 56.7 nM.

For `COc1cc(-c2cc(C(=O)N3CC[C@H](C(=O)Nc4ccc5c(c4)COB5O)CC34CC4)[nH]n2)c(F)cn1` [Example 523, (S)-4-(3-(5-fluoro-2-methoxypyridin-4-yl)-1H-pyrazole-5-carbonyl)-N-(1-hydroxy-1,3-dihydrobenzo[c][1,2]oxaborol-5-yl)-4-azaspiro[2.5]octane-7-carboxamide], in the assay with UM-UC-9 engineered cells (Homo sapiens, UM-UC-9, 144 h), the IC50 was determined as 54.3 nM. The AC50 at His6-TEV-PPARγ-(234-505) was determined as 5.3 nM.

As for `COc1cc(-c2cc(C(=O)N3CCC(C(=O)NCc4ccc(C(F)(F)F)nc4)CC3)n[nH]2)c(Cl)cn1` [Example 178, 1-(5-(5-chloro-2-methoxypyridin-4-yl)-1H-pyrazole-3-carbonyl)-N-((6-(trifluoro-15-methyl)pyridin-3-yl)methyl)piperidine-4-carboxamide], the IC50 with UM-UC-9 engineered cells (Homo sapiens, UM-UC-9, 144 h) was 1260 nM. Further, the AC50 at His6-TEV-PPARγ-(234-505) is 344 nM.

Regarding `COc1cc(-c2cc(C(=O)N3CCC(C(=O)NCc4cc5ccccc5[nH]4)CC3)n[nH]2)c(Cl)cn1` [Example 250, N-((1H-indol-2-yl)methyl)-1-(5-(5-chloro-2-methoxypyridin-4-yl)-1H-pyrazole-3-carbonyl)piperidine-4-carboxamide], the IC50 in the assay with UM-UC-9 engineered cells (Homo sapiens, UM-UC-9, 144 h) came to 430 nM. Besides, at His6-TEV-PPARγ-(234-505), the AC50 was determined as 24.7 nM.

Take `COc1cc(-c2cc(C(=O)N3CC[C@H](C(=O)NCC45CC(C(F)(F)F)(C4)C5)CC34CC4)[nH]n2)c(F)cn1` [Example 515, (S)-4-(3-(5-fluoro-2-methoxypyridin-4-yl)-1H-pyrazole-5-carbonyl)-N-((3-(trifluoromethyl)bicyclo[1.1.1]pentan-1-yl)methyl)-4-azaspiro[2.5]octane-7-carboxamide]: the IC50 in the assay with UM-UC-9 engineered cells (Homo sapiens, UM-UC-9, 144 h) was determined as 6 nM. On His6-TEV-PPARγ-(234-505), the AC50 is 5 nM.

In the case of `COc1cc(-c2cc(C(=O)N3CCC(C(=O)NCc4cnccc4C)CC3)n[nH]2)c(Cl)cn1` [Example 131, 1-(5-(5-chloro-2-methoxypyridin-4-yl)-1H-pyrazole-3-carbonyl)-N-((4-methylpyridin-3-yl)methyl)piperidine-4-carboxamide], in the assay on UM-UC-9 engineered cells (Homo sapiens, UM-UC-9, 144 h), the IC50 came out at 2610 nM. On His6-TEV-PPARγ-(234-505), the AC50 was 494 nM.

The record behind these values is patent publication US12606541B2, “PPARg modulators and methods of use” (Eisai R&D Management Co., Ltd., priority 2020, dated 2026).
